Data reported in patent US12558342B2, “2-[2-({12,12-dimethyl-4-oxo-6-phenyl-3,11-dioxatricyclo[8.4.0.0,2,7]tetradeca-1,5,7,9-tetraen-8-yl}oxy)acetamido]benzamide and derivatives as inhibitor of clock:bmal1 interaction for the treatment of circadian rhythm diseases and disorders” (KOC UNIVERSITESI, priority 2019, dated 2026).

System: wild type MDA MB231 cells
Experiment: Bmal1::dluc rhythm in wild type MDA MB231 cells
Type: cell-based
Experimental: We used Bmal1::dluc U2-OS and Per1::dluc NIH 3T3, and continuously monitored the bioluminescence to record circadian rhythm. This experiment was performed in 96-well plates (triplicates) and 35-mm dishes (duplicates) in the secondary screen and detailed characterization steps respectively. Briefly, cells were seeded to reach confluency. A day after, the medium was replaced with DMEM containing 0.1 μM Dexamethasone to synchronize cells. […] The 96-well plates were covered and bioluminescence was monitored by Synergy H1 Hybrid Multi-Mode Reader every 32 minutes. […] Bioluminescence was recorded every 10 minutes for 4-6 days. […] The first day's data was excluded from the analysis due to transient perturbations of luminescence after the medium change.
HEK 293T cells at 75-85% confluency were transfected with […] of pLV6-Bmal-luc plasmid, 9 ng of pCMV-AR8.2dvpr packaging vector and 1 ng of pCMV-VSVG envelope vector for 16 h. […] At 72-hour post-transduction, the circadian rhythms of cells monitored using Lumicycle.
We used Bmal1::dluc U2-OS and Per1::dluc NIH 3T3, and continuously monitored the bioluminescence to record circadian rhythm. […] The 96-well plates were covered and bioluminescence was monitored by Synergy H1 Hybrid Multi-Mode Reader every 32 minutes. […] Bioluminescence was recorded every 10 minutes for 4-6 days. […]

CC1(C)CCc2c(cc(OCC(=O)Nc3ccccc3C(N)=O)c3c(-c4ccccc4)cc(=O)oc23)O1 [CLK8, 2-[2-({12,12-dimethyl-4-oxo-6-phenyl-3,11-dioxatricyclo [8.4.0.0,2,7]tetradeca-1,5,7,9-tetraen-8-yl}oxy)acetamido] benzamide]
amplitude of circadian rhythm: enhance amplitude
